In ChEMBL document CHEMBL3603745, “Synthesis of ciprofloxacin dimers for evaluation of bacterial permeability in atypical chemical space” (Bioorg Med Chem Lett, 2015):
Values after ≈ are worked out from the molar mass of the structure shown.

Assays:
[1] = test system: Escherichia coli; assay: Antibacterial activity against tolC-deficient Escherichia coli NB27005-CDY0039 expressing gyrA S83L […], parC S80I mutant by broth microdilution method; format: functional
[2] = test system: Staphylococcus aureus; assay: Antibacterial activity against wild type Staphylococcus aureus ATCC 29213 by broth microdilution method; format: functional
[3] = test system: Escherichia coli; assay: Antibacterial activity against wild type Escherichia coli ATCC 25922 by broth microdilution method; format: functional
[4] = test system: Escherichia coli; assay: Antibacterial activity against wild type Escherichia coli MC4100 by broth microdilution method; format: functional
[5] = test system: Staphylococcus aureus; assay: Antibacterial activity against fluoroquinolone-resistant Staphylococcus aureus NB01006-AVR005 harboring gyrA S84L, parC S80F, parE E471K by broth microdilution method; format: functional
[6] = test system: Escherichia coli; assay: Antibacterial activity against Escherichia coli imp-4213 by broth microdilution method; format: functional
[7] = test system: Pseudomonas aeruginosa; assay: Antibacterial activity against mexX, mexB deficient Pseudomonas aeruginosa NB52023-CDK006 harboring gyrAT83I and parC S87L by broth microdilution method; format: functional
[8] = test system: Escherichia coli; assay: Antibacterial activity against wild type Escherichia coli BW5328/pAH69 by broth microdilution method; format: functional
[9] = test system: Pseudomonas aeruginosa; assay: Antibacterial activity against mexX, mexB deficient Pseudomonas aeruginosa NB52023-CDK005 harboring gyrAT83I by broth microdilution method; format: functional
[10] = Inhibition of Escherichia coli recombinant gyrase A2B2 assessed as reduction of pHOT-1 supercoiling after 90 mins
[11] = test system: Staphylococcus aureus; assay: Antibacterial activity against wild type methicillin-susceptible Staphylococcus aureus ATCC 49951 by broth microdilution method; format: functional
[12] = test system: Escherichia coli; assay: Antibacterial activity against fluoroquinolone-resistant Escherichia coli CH10 harboring gyrA S83L D87N, parC S80I E84G, AcrA+ by broth microdilution method; format: functional
[13] = test system: Pseudomonas aeruginosa; assay: Antibacterial activity against Pseudomonas aeruginosa K1542 deficient with mexX, mexB by broth microdilution method; format: functional
[14] = test system: Pseudomonas aeruginosa; assay: Antibacterial activity against wild type Pseudomonas aeruginosa PAO1 by broth microdilution method; format: functional
[15] = test system: Escherichia coli; assay: Antibacterial activity against tolC-deficient Escherichia coli JW5503-1 by broth microdilution method; format: functional

Compound `Cc1cc(C(=O)N2CCN(c3cc4c(cc3F)c(=O)c(C(=O)O)cn4C3CC3)CC2)cc(C(=O)N2CCN(c3cc4c(cc3F)c(=O)c(C(=O)O)cn4C3CC3)CC2)c1` has an MIC [1] of 16 µg/mL (≈ 19.8 µM), an MIC [2] of 1 µg/mL (≈ 1.24 µM) and an MIC [3] of 0.5 µg/mL (≈ 0.62 µM). It also gave an MIC [4] of 0.5 µg/mL (≈ 0.62 µM), an MIC [5] greater than 32 µg/mL and an MIC [6] of no more than 0.03 µg/mL. The MIC [7] was greater than 32 µg/mL, the MIC [8] was 0.5 µg/mL (≈ 0.62 µM) and the MIC [9] was 8 µg/mL (≈ 9.92 µM). The IC50 [10] was 1160 nM, the MIC [11] was 0.5 µg/mL (≈ 0.62 µM) and the MIC [12] was greater than 32 µg/mL. It also gave an MIC [13] of 0.5 µg/mL (≈ 0.62 µM), an MIC [14] of 4 µg/mL (≈ 4.96 µM) and an MIC [15] of no more than 0.03 µg/mL.
In the case of `O=C(O)c1cn(C2CC2)c2cc(N3CCN(C(=O)c4cccc(C(=O)N5CCN(c6cc7c(cc6F)c(=O)c(C(=O)O)cn7C6CC6)CC5)c4)CC3)c(F)cc2c1=O`, the MIC [1] is reported as greater than 32 µg/mL, the MIC [2] is reported as 2 µg/mL (≈ 2.52 µM) and the MIC [3] is reported as greater than 32 µg/mL. It also gave an MIC [4] greater than 32 µg/mL, an MIC [5] greater than 32 µg/mL and an MIC [6] of 0.06 µg/mL (≈ 0.0757 µM). The MIC [7] was greater than 32 µg/mL, the MIC [8] was greater than 32 µg/mL and the MIC [9] was greater than 32 µg/mL. It also gave an IC50 [10] of 110 nM, an MIC [11] of 0.25 µg/mL (≈ 0.315 µM) and an MIC [12] greater than 32 µg/mL. It also gave an MIC [13] greater than 32 µg/mL, an MIC [14] greater than 32 µg/mL and an MIC [15] of 0.125 µg/mL (≈ 0.158 µM).
For `O=C(NCC(=O)N1CCN(c2cc3c(cc2F)c(=O)c(C(=O)O)cn3C2CC2)CC1)c1cccc(C(=O)NCC(=O)N2CCN(c3cc4c(cc3F)c(=O)c(C(=O)O)cn4C3CC3)CC2)c1`, the MIC [1] was greater than 32 µg/mL, the MIC [2] was greater than 32 µg/mL and the MIC [3] was 1 µg/mL (≈ 1.1 µM). For the same compound, the MIC [4] was 2 µg/mL (≈ 2.21 µM), the MIC [5] was greater than 32 µg/mL and the MIC [6] was 0.25 µg/mL (≈ 0.276 µM). It also gave an MIC [7] greater than 32 µg/mL, an MIC [8] of 2 µg/mL (≈ 2.21 µM) and an MIC [9] of 32 µg/mL (≈ 35.3 µM). It also gave an IC50 [10] of 3200 nM, an MIC [11] of 1 µg/mL (≈ 1.1 µM) and an MIC [12] greater than 32 µg/mL. It also gave an MIC [13] of 2 µg/mL (≈ 2.21 µM), an MIC [14] of 16 µg/mL (≈ 17.6 µM) and an MIC [15] of 0.25 µg/mL (≈ 0.276 µM).
In the case of `O=C(NCCCCC(=O)N1CCN(c2cc3c(cc2F)c(=O)c(C(=O)O)cn3C2CC2)CC1)c1cccc(C(=O)NCCCCC(=O)N2CCN(c3cc4c(cc3F)c(=O)c(C(=O)O)cn4C3CC3)CC2)c1`, the MIC [1] is reported as greater than 32 µg/mL, the MIC [2] is reported as greater than 32 µg/mL and the MIC [3] is reported as 16 µg/mL (≈ 16.1 µM). The MIC [4] was 16 µg/mL (≈ 16.1 µM), the MIC [5] was greater than 32 µg/mL and the MIC [6] was 2 µg/mL (≈ 2.02 µM). It also gave an MIC [7] greater than 32 µg/mL, an MIC [8] of 16 µg/mL (≈ 16.1 µM) and an MIC [9] greater than 32 µg/mL. The IC50 [10] was 9970 nM, the MIC [11] was 4 µg/mL (≈ 4.04 µM) and the MIC [12] was greater than 32 µg/mL. For the same compound, the MIC [13] was greater than 32 µg/mL, the MIC [14] was greater than 32 µg/mL and the MIC [15] was 0.5 µg/mL (≈ 0.505 µM).
Work on `C=CCCC(=O)N1CCN(c2cc3c(cc2F)c(=O)c(C(=O)O)cn3C2CC2)CC1` yielded an MIC [1] of 2 µg/mL (≈ 4.84 µM), an MIC [2] of 0.25 µg/mL (≈ 0.605 µM) and an MIC [3] of 0.5 µg/mL (≈ 1.21 µM). The MIC [4] was 1 µg/mL (≈ 2.42 µM), the MIC [5] was 32 µg/mL (≈ 77.4 µM) and the MIC [6] was no more than 0.03 µg/mL. It also gave an MIC [7] greater than 32 µg/mL, an MIC [8] of 1 µg/mL (≈ 2.42 µM) and an MIC [9] greater than 32 µg/mL. For the same compound, the IC50 [10] was 760 nM, the MIC [11] was 0.25 µg/mL (≈ 0.605 µM) and the MIC [12] was greater than 32 µg/mL. For the same compound, the MIC [13] was 2 µg/mL (≈ 4.84 µM), the MIC [14] was 16 µg/mL (≈ 38.7 µM) and the MIC [15] was no more than 0.03 µg/mL.
With `CC(C)(C)OC(=O)NCCCCCC(=O)N1CCN(c2cc3c(cc2F)c(=O)c(C(=O)O)cn3C2CC2)CC1` the MIC [1] was 2 µg/mL (≈ 3.67 µM), the MIC [2] was 2 µg/mL (≈ 3.67 µM) and the MIC [3] was greater than 32 µg/mL. It also gave an MIC [4] greater than 32 µg/mL, an MIC [5] greater than 32 µg/mL and an MIC [6] of 0.25 µg/mL (≈ 0.459 µM). The MIC [7] was greater than 32 µg/mL, the MIC [8] was greater than 32 µg/mL and the MIC [9] was greater than 32 µg/mL. It also gave an IC50 [10] of 4350 nM, an MIC [11] of 2 µg/mL (≈ 3.67 µM) and an MIC [12] greater than 32 µg/mL. It also gave an MIC [13] greater than 32 µg/mL, an MIC [14] greater than 32 µg/mL and an MIC [15] of 0.06 µg/mL (≈ 0.11 µM).
With `O=C(O)c1cn(C2CC2)c2cc(N3CCN(CCOCCOCCOc4ccc5ccc(=O)oc5c4)CC3)c(F)cc2c1=O` the MIC [1] was greater than 32 µg/mL, the MIC [2] was 2 µg/mL (≈ 3.29 µM) and the MIC [3] was 1 µg/mL (≈ 1.65 µM). The MIC [4] was 2 µg/mL (≈ 3.29 µM), the MIC [5] was greater than 32 µg/mL and the MIC [6] was 0.125 µg/mL (≈ 0.206 µM). For the same compound, the MIC [7] was greater than 32 µg/mL, the MIC [8] was 1 µg/mL (≈ 1.65 µM) and the MIC [9] was greater than 32 µg/mL. The IC50 [10] was 6670 nM, the MIC [11] was 2 µg/mL (≈ 3.29 µM) and the MIC [12] was greater than 32 µg/mL. The MIC [13] was 8 µg/mL (≈ 13.2 µM), the MIC [14] was 16 µg/mL (≈ 26.3 µM) and the MIC [15] was no more than 0.03 µg/mL.
Work on `O=C(O)c1cn(C2CC2)c2cc(N3CCNCC3)c(F)cc2c1=O` [CIPROFLOXACIN] yielded an MIC [2] of 0.5 µg/mL (≈ 1.51 µM), an MIC [3] of no more than 0.03 µg/mL and an MIC [4] of no more than 0.03 µg/mL. It also gave an MIC [5] greater than 32 µg/mL, an MIC [6] of no more than 0.03 µg/mL and an MIC [7] of 4 µg/mL (≈ 12.1 µM). It also gave an MIC [8] of no more than 0.03 µg/mL, an IC50 [10] of 460 nM and an MIC [11] of 0.25 µg/mL (≈ 0.754 µM). For the same compound, the MIC [12] was greater than 32 µg/mL, the MIC [13] was 0.06 µg/mL (≈ 0.181 µM) and the MIC [15] was no more than 0.03 µg/mL.
`CC[C@H]1OC(=O)[C@H](C)[C@@H](O[C@H]2C[C@@](C)(OC)[C@@H](O)[C@H](C)O2)[C@H](C)[C@@H](O[C@@H]2O[C@H](C)C[C@H](N(C)C)[C@H]2O)[C@](C)(O)C[C@@H](C)C(=O)[C@H](C)[C@@H](O)[C@]1(C)O` [ERYTHROMYCIN] showed an MIC [1] of 2 µg/mL (≈ 2.73 µM), an MIC [2] of 0.25 µg/mL (≈ 0.341 µM) and an MIC [3] greater than 32 µg/mL. For the same compound, the MIC [4] was greater than 32 µg/mL, the MIC [5] was 0.5 µg/mL (≈ 0.681 µM) and the MIC [6] was 2 µg/mL (≈ 2.73 µM). The MIC [7] was greater than 32 µg/mL, the MIC [8] was 32 µg/mL (≈ 43.6 µM) and the MIC [9] was greater than 32 µg/mL. The MIC [11] was 0.25 µg/mL (≈ 0.341 µM), the MIC [12] was greater than 32 µg/mL and the MIC [13] was greater than 32 µg/mL. It also gave an MIC [14] greater than 32 µg/mL and an MIC [15] of 2 µg/mL (≈ 2.73 µM).
